Experiments:
[1] = system: E. coli, V. cholerae, and V. parahaemolyticus; test: Generalized DPO-based phage kill switch growth/lysis assay (FIG. 4); type: cell-based; settings: arabinose plus DPO (50 μM synthetic DPO per FIG. 4 legend)
Description: FIG. 4 is a graph showing the growth of E. coli, V. cholerae, and V. parahaemolyticus strains lysogenized with the generalized DPO-based phage kill switch in minimal medium lacking (black bars) or containing (white bars) 50 μM synthetic DPO to induce lysis, where all media contained arabinose.
(§1) Growth, Lysis, and Reporter Assays. Typically, overnight cultures were back diluted 1:1000 into fresh medium with appropriate antibiotics and strains were grown to OD600 0.5-0.6. Cultures were back diluted 1:20, and grown to OD600 0.1, before being dispensed (200 μL) into 96 well plates (Corning Costar 3904). MMC, ara, or aTc was added as specified. […] Plates were shaken at 37° C. and a BioTek Synergy Neo2 Multi-Mode reader was used to measure OD600, OD600 and bioluminescence, or OD600 and fluorescence. […]. In the case of fluorescence assays, M9 supplemented with 0.4% casamino acids (BD-Difco) was used and readings were made by excitation at 588 nm and emission at 633 nm. The glycerol stocks were prepared from three independent colonies of each strain at a single OD600. Care was taken to ensure that the OD600 between these strains was identical prior to storage. Parallel cultures of the same strains were used for viral preparations.

[2] = system: V. parahaemolyticus lysogenized with phage VP882; test: Growth/lysis assay (OD600), VP882 lysogen; type: cell-based; settings: for host cell lysis (OD600): wild-type VP882 lysogen, expression induced (ara or aTc) or MMC added
Description: as §1

[3] = system: phage VP882 vqmAPhage::Tn5 in V. cholerae; test: Viral load by quantitative PCR of viral preparations; type: cell-based
Description: qPCR and Viral Preparations. Viral preparations consisted of purified non-chromosomal DNA (ZR BAC kit, Zymo Research) prepared from 2 mL of cells. Following addition of the indicated compounds or water control, the cultures were returned to growth for 3 h prior to harvesting. This alteration in procedure was necessary to enable growth of sufficient cells for use with the viral preparation kit. 0.5 ng of purified non-chromosomal DNA was used for each qPCR reaction. qPCR reactions were performed as described above for qRT-PCR reactions. Data were analyzed by a comparative CT method in which the VP882 phage-specific primer set (JSO-1399×1400) was normalized to the non-phage plasmid-specific primer set (JSO-1401×1402). The reference sample for each comparison was the isogenic strain (Δtdh or WT) that was not induced.

[4] = system: V. cholerae carrying the VP882 prophage; test: Growth/lysis assay (OD600), V. cholerae carrying VP882; type: cell-based
Description: as §1

[5] = system: V. parahaemolyticus harboring phage VP882; test: Phage (virion) DNA isolation from culture fluids; type: cell-based
Description: Phage DNA Isolation. Phage DNA was purified from phage particles present in the supernatants of lysed cells (virion) and from host cell pellets lysogenized with VP882 (prophage). Prophage DNA was purified using the FosmidMAX kit (Lucigen) according to the manufacturer's protocol for 1.5 mL cultures. Virion DNA was isolated using a Phage DNA isolation kit (Norgen Biotek) including the DNase I and Proteinase K treatment steps indicated in the manufacturer's protocol.

[6] = system: Pgp69-lux; test: Pgp69-lux reporter assay in V. parahaemolyticus lysogen; type: cell-based; settings: VP882 lysogen
Description: as §1

[7] = system: Pq-lux; test: Pq-lux reporter assay in recombinant E. coli; type: cell-based
Description: as §1

[8] = system: phage VP882 cI; test: Confocal microscopy of HALO-cI localization (VP882 cI); type: cell-based; settings: single-cell level in E. coli
Description: (§2) Confocal Microscopy. Overnight cultures, started from single colonies of E. coli (T7Express) carrying HALO and/or SNAP fusions (see Table 2) were back-diluted 1:1000, and grown at 37° C. to OD600˜0.2. Either MMC, aTc, or ethanol in water was added. The so-treated samples were returned to shaking at 37° C. for an additional 60 min prior to live-cell staining and imaging. Live-cell staining was performed using a protocol adapted from (Ke et al., 2016). Briefly, HALO-TMR was added to each sample at 10 μM. The samples were incubated in the dark for 15-20 min at 37° C. The cells were pelleted at 13,000 g×1 min, washed twice with M9 medium, and resuspended in 50-150 μL of fresh M9 medium. 5-10 μL of each sample was spotted onto a glass coverslip and overlaid with a small amount of M9-agar. The samples were imaged on a Leica SP8 Confocal microscope. HALO-TMR was excited with 561 nm light and detected within a range of 579-622 nm. For SNAP-Qtip co-localization experiments, the SNAP-specific dye JF503 (Grimm et al., 2017) was added at 10 μM at the same time as the HALO-TMR reagent was added. SNAP was visualized by excitation at 504 nm and detection within 516-540 nm. All images were acquired under the same conditions (laser power and gain) in LASX (Leica Microsystems). Images were imported into Fiji for processing, which consisted solely of adjusting brightness and contrast (min-max).

[9] = system: HIS-HALO-Gp59; test: Western blot to assess HIS-HALO-Gp59 cleavage; type: cell-based, E. coli
[10] = system: Pq-lux; test: Pq-lux reporter assay in V. parahaemolyticus; type: cell-based; settings: VP882 lysogen
Description: as §1

[11] = system: lambda HALO-cI; test: Confocal microscopy of HALO-cI localization (lambda cI); type: cell-based; settings: co-expression in E. coli
Description: as §2

[12] = system: HALO-cI repressor from vibriophage VP58.5; test: Confocal microscopy of HALO-cI localization (VP58.5 cI); type: cell-based; settings: co-expression in E. coli
Description: as §2

[13] = system: HALO-cI from MJ1; test: Confocal microscopy of HALO-cI localization (MJ1 cI); type: cell-based, phage MJ1; settings: co-expression in E. coli
Description: as §2

[14] = system: cI; test: Co-immunoprecipitation of HALO-cI with HIS-Gp55; type: binding, phage VP882; settings: combined E. coli lysates
[15] = synthetic DPO supplied to WT and Δtdh strains, vqmAPhage induced
[16] = WT and Δtdh strains, qtip from inducible promoter or MMC

## Cc1cnc(O)c(C)n1 [DPO, 3,5-dimethylpyrazine-2-ol]
[1]
  lysis: maximal lysis
[2]; minimal medium lacking threonine, DPO added in the absence of induction of VqmAPhage
  host cell lysis: no lysis
[2]; minimal medium lacking threonine, vqmAPhage induced with 0.2% ara, DPO 10 μM
  host cell lysis: maximal host cell lysis
[3]; WT strain
  additional increase in viral load with exogenous DPO versus endogenous DPO only: 35%
[3]; [15]
  viral load: increased in both strains to similar extents
[4]; WT strain
  additional lysis with exogenous DPO versus endogenously-produced DPO only: 25%
[4]; [15]
  lysis: lysis occurred

## CO[C@@]12[C@H](COC(N)=O)C3=C(C(=O)C(C)=C(N)C3=O)N1C[C@@H]1N[C@@H]12 [MMC, mitomycin C]
[5]
  release of VP882 phage DNA into culture fluids: VP882 phage DNA could be purified
[6]
  light production from Pgp69-lux: rapidly increased
  offset between activation of Pq-lux and activation of Pgp69-lux: 10 min
[7]; recA+ E. coli carrying Pq-lux and HIS-HALO-Gp59
  Pq-lux light production: significant increase in light production
[7]; ΔrecA E. coli carrying Pq-lux and HIS-HALO-Gp59
  Pq-lux light production: no effect
[8]
  cI localization (VP882 HALO-cI): remained diffuse
[2]; VP882 phage harboring gp62::Tn5
  host cell lysis: do not
[2]; VP882 phage with a Tn5 in vqmAPhage
  host cell lysis: lyse
[9]; recA+ E. coli, MMC-treated
  HIS-HALO-Gp59 bands on Western blot: lower-molecular-weight bands, presumably cleavage products
[9]; ΔrecA E. coli, MMC treatment
  HIS-HALO-Gp59 protein on Western blot: unaffected
[10]
  light production from Pq-lux: rapidly increased

B1: Qtip (protein, listed as Vibrio cholerae)
chain: MCDFCSEHIDSLDALQSSLEKGTAIIELLDTALSAGIEVSPRVVSCALSAAHQHLQVSEKINRSLQIGCGSKEVLRLVD
[11]
  cI aggregation (lambda HALO-cI): No aggregation occurred
[7]; combined reporter plasmid (inducible vqmAPhage, Pq-lux, cI), pTetA-gp55 induced
  Pq-lux activity: sufficient to generate Pq-lux activity
[12]
  cI aggregation (VP58.5 HALO-cI): Aggregation also occurred
[13]
  cI aggregation (MJ1 HALO-cI): resulted in foci
[8]
  cI localization (VP882 HALO-cI): foci located primarily at the cell poles
[2]
  host cell lysis (OD600): host cell lysis comparable to when MMC was added or vqmAPhage was induced
[14]
  binding of cI during purification of HIS-Gp55: cI binds to Gp55
[3]; [16]
  viral production: increased viral production
[4]; [16]
  lysis: Near-complete lysis

B2: ORF584 (protein, listed as Vibrio cholerae)
chain: MDLRVSNAKDLLDKFEEKAVQMESISQLLANAPEDLTLATVQGSLSALASIARDAGEAADRLRTISSAEG
[11]
  cI aggregation (lambda HALO-cI): not
[7]; orf584 induced, host per Table 2
  phage VP882 Pq expression: de-repression
[13]
  cI aggregation (MJ1 HALO-cI): caused aggregation
[8]
  cI localization (VP882 HALO-cI): stripe of cI localization along the length of the cell
[8]; listed as orf584
  cI localization (VP882 HALO-cI): caused aggregation
[2]
  host cell lysis (OD600): lysis

Source: US12209256B2, “System for protein inactivation and recombinant phages for targeted bacterial killing, infection, biodetection, and as a means of protein extraction” (priority 2018, dated 2025)
